{"source": "paper PMC9688111", "about": "“An Evolutionary Perspective on the Origin, Conservation and Binding Partner Acquisition of Tankyrases” (Biomolecules, 2022)", "key": {"AqTNKS ART": {"target": "T1, AqTNKS ART (Amphimedon queenslandica, UniProt A0AAN0IWK4)", "T1 construct": "catalytic ART domain, Thr968-Thr1181; MBP tag removed by TEV; E. coli BL21(DE3), codon-optimized", "T1 sequence (A0AAN0IWK4 entry or part of it)": "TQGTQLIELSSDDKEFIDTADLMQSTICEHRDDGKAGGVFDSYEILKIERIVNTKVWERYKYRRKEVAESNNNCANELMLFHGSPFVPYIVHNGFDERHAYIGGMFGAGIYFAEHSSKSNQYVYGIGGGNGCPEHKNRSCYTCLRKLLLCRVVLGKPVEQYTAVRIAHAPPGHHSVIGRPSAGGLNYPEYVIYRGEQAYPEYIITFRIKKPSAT", "experiment": "differential scanning fluorimetry (SYPRO orange)", "format": "binding", "details": "[…] protein, […] compound, pH […]"}, "TNKS1 ART": {"target": "T2, TNKS1 ART (Homo sapiens, UniProt O95271)", "T2 construct": "gene TNKS; catalytic ART domain; E. coli BL21(DE3)", "T2 sequence (O95271 1105-1327 limits assumed)": "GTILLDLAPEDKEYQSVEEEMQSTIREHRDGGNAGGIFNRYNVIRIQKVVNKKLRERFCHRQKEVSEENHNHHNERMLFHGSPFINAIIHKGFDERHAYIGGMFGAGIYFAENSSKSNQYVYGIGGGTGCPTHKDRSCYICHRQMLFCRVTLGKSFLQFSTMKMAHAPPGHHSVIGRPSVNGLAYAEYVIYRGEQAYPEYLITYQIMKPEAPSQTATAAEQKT", "experiment": "differential scanning fluorimetry (SYPRO orange)", "format": "binding", "details": "[…] protein, […] compound, pH […]; adenosine site"}, "AqTNKS SAM-ART": {"target": "T3, AqTNKS SAM-ART (Amphimedon queenslandica, UniProt A0AAN0IWK4)", "T3 construct": "SAM and ART domains, Pro889-Thr1181; N-terminal MBP tag kept; E. coli BL21(DE3); forms multimers", "T3 sequence (A0AAN0IWK4 entry or part of it)": "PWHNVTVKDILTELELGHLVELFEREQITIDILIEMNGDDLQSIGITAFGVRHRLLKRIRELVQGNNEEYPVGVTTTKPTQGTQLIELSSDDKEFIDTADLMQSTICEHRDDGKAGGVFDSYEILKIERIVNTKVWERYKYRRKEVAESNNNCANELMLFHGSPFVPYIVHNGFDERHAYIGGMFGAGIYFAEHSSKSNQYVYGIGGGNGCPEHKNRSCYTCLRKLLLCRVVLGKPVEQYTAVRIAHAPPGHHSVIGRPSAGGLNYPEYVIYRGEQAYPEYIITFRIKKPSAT", "experiment": "auto-PARylation, Western blot", "format": "biochemical", "details": "[…] protein; biotin-NAD+/NAD+ ([…]), […] total; […] h, room temperature; labelled compound as tracer"}, "TNKS1 SAM-ART": {"target": "T4, TNKS1 SAM-ART (Homo sapiens, UniProt O95271)", "T4 construct": "gene TNKS; SAM and ART domains; N-terminal MBP tag kept; E. coli BL21(DE3)", "T4 sequence (O95271 1030-1327 limits assumed)": "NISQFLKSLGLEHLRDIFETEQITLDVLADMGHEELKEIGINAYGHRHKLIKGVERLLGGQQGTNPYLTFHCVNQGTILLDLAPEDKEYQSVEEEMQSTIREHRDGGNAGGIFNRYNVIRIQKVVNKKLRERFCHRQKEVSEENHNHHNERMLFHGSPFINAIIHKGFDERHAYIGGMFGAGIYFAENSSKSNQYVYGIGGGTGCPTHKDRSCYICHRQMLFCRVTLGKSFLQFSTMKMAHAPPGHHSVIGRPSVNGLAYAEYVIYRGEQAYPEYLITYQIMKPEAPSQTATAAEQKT", "experiment": "auto-PARylation, Western blot", "format": "biochemical", "details": "[…] protein; biotin-NAD+/NAD+ ([…]), […] total; […] h, room temperature; labelled compound as tracer"}, "CFP-ARC5 (AqTNKS)": {"target": "T5, CFP-ARC5 (AqTNKS) (Amphimedon queenslandica)", "T5 chain": "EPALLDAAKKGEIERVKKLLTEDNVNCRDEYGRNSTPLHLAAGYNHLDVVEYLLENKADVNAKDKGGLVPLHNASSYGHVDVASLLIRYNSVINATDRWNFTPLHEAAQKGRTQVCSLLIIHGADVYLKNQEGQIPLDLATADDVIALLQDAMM", "experiment": "FRET"}}, "note": "No end group written: not given here. YFP = yellow fluorescent protein"}
{"molecule": "Cc1cc(N2C[C@@H](C)N[C@@H](C)C2)ncc1-c1ccc(-c2nc3c(ccn3C)c(=O)[nH]2)cc1", "note": "[AZ6102]", "values": [{"measurement": "Tm shift", "setting": "AqTNKS ART; nicotinamide site, compound named in Results but not in the Methods list", "result": "For all inhibitors, the melting temperatures for both TNKS1 and AqTNKS were similarly increased"}]}
{"molecule": "O=c1[nH]nc2c3c(cccc13)NC(CN1Cc3ccccc3C1)=N2", "note": "[E7449]", "values": [{"measurement": "Tm shift", "setting": "AqTNKS ART; nicotinamide site", "result": "For all inhibitors, the melting temperatures for both TNKS1 and AqTNKS were similarly increased"}]}
{"molecule": "CS(=O)(=O)c1ccc(-c2nnc(/C=C/c3nnc(-c4ccc(C#N)cc4)o3)n2-c2ccccc2Cl)nc1", "note": "[G007-LK]", "values": [{"measurement": "Tm shift", "setting": "AqTNKS ART; adenosine site", "result": "For all inhibitors, the melting temperatures for both TNKS1 and AqTNKS were similarly increased"}, {"measurement": "Tm shift", "setting": "TNKS1 ART", "result": "For all inhibitors, the melting temperatures for both TNKS1 and AqTNKS were similarly increased"}]}
{"molecule": "NC(=O)c1ccc[n+]([C@@H]2O[C@H](COP(=O)(O)OP(=O)(O)OC[C@H]3O[C@@H](n4cnc5c(N)ncnc54)[C@H](O)[C@@H]3O)[C@@H](O)[C@H]2O)c1", "note": "[NAD^+]", "values": [{"measurement": "auto-PARylation, Western blot", "setting": "AqTNKS SAM-ART", "result": "PARylation of the proteins was clearly detected for the SAM-ART constructs of AqTNKS and TNKS1"}, {"measurement": "auto-PARylation, Western blot", "setting": "TNKS1 SAM-ART", "result": "PARylation of the proteins was clearly detected for the SAM-ART constructs of AqTNKS and TNKS1"}]}
{"molecule": "COc1ccc(C(=O)C2CCN(CC(=O)N(Cc3nc4c(c(=O)[nH]3)COCC4)CC3CC3)CC2)cc1", "note": "[NVP-TNKS656]", "values": [{"measurement": "Tm shift", "setting": "AqTNKS ART; dual site", "result": "For all inhibitors, the melting temperatures for both TNKS1 and AqTNKS were similarly increased"}]}
{"molecule": "O=c1[nH]c(-c2ccc(C(F)(F)F)cc2)nc2c1CSCC2", "note": "[XAV939]", "values": [{"measurement": "Tm shift", "setting": "AqTNKS ART; nicotinamide site", "result": "For all inhibitors, the melting temperatures for both TNKS1 and AqTNKS were similarly increased"}]}
{"molecule": "{YFP}-REAGDGEE", "note": "[YFP-REAGDGEE]", "values": [{"measurement": "Kd", "setting": "CFP-ARC5 (AqTNKS)", "result": 98.5, "unit": "nM"}]}
